# Literature values, collected in patent US11066478B2, “Intravesical therapy for bladder cancer” (PHOTOCURE ASA, priority 2015, dated 2021).
# Columns and labels:
# bladder cancer = conditions: patients who underwent cystectomy for bladder cancer, HAL-guided TUR prior to cystectomy
# NMIBC = conditions: patients with NMIBC
smiles,measurement,setting,value
"CCCCCCOC(=O)CCC(=O)CN [HAL, n-hexyl 5-amino-4-oxo-pentanoate]",3-year overall survival (OS),bladder cancer; comparison 56.6%,65.0%
same,3-year recurrence-free survival (RFS),bladder cancer; white light TUR alone 58.2%,69.8%
same,rate of residual tumor after TUR,NMIBC; HAL-guided TUR,reduced the rate of residual tumor
same,recurrence free survival (RFS) rates,NMIBC; HAL-guided TUR compared to white light TUR alone,superior recurrence free survival (RFS) rates
same,detection of papillary tumors and flat carcinoma-in-situ (CIS) lesions,NMIBC; HAL-guided cystoscopy and TUR versus white light alone,increased detection
